The values below come from US20240400584A1, “COMPOUNDS AND METHODS FOR MODULATING SPLICING” (REMIX THERAPEUTICS INC., priority 2021, published 2024).

Bounds are passed on as bounds.

The subject of experiment [1] is HTT. Description: Gene panel canonical junction qPCR assay, HTT CJ mRNA (Table 7). In kind it is cell-based, human. To be noted: read-out: HTT CJ mRNA decrease IC50. The method in brief:
(§1)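 A673/K562 cells + cpd → lysate → cDNA → qPCR, CY5 5′ nuclease probe set overlapping canonical junction. Normalized to GAPDH/GUSB/PPIA and DMSO via ΔΔCt, RQ → % response over fixed ΔCt window. IC50 = 50% CJ decrease, 4PL fit.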

For experiment [2], the system named is HiBit-tagged Target C in K562 cells. Description: HiBiT protein abundance assay, Target C. In kind it is cell-based, human. To be noted: HiBiT-modified K562 cells, 24 hours, luminescence. The method, then:
(§2) Compounds described herein were used to screen for effects on quantitative protein abundance using a HiBit assay system (Promega). Quantitative protein abundance was determined by measuring the protein levels of HiBit-tagged protein targets expressed in cell culture via luminescence using the Nano-Glo HiBiT Lytic Detection System, which uses a split complementation assay format to reconstitute NanoBiT enzyme to generate a luminescent signal. A protein abundance assay was developed such that endogenous protein targets could be modified with the HiBiT peptide tag and their abundance could be assessed after compound treatment. Briefly, K562 cell lines containing a HiBiT-modification were treated with various compounds described herein (e.g., compounds of Formulas (I)). After treatment for 24 hours, the protein abundance of a specific target was determined by measuring luminescence.
(§3) Cells were maintained in IMDM with 10% FBS. Before the assay, cells were diluted with […] growth media (IMDM+[…] media) and were seeded in a 384-well plate at a density of 10000 cells/well (for each cell line listed in Table 8). Each compound was prepared as a 10-point 3-fold serial dilution in DMSO with the top dose at a final concentration of 10 μM in the well. Unmodified K562 cells were added at the previously specified density with DMSO to serve as an assay baseline and positive control (PC) and DMSO only with the respective modified cell lines was added to the negative control (NC) columns. Final DMSO concentration was kept at or below 0.25% o. Treated cell plates were placed in an incubator at 37° C. with […] for 24 hours. After 24 hours, 25 μL of Complete HiBit Lytic reagent was added to each well at room temperature (e.g. one plate requiring 10 mL Lytic Buffer, 100 μL LgBiT Protein, 200 μL Lytic Substrate), shaken for 5 minutes at 600 RPM, then left to sit for 10 minutes for signal to stabilize before reading on a Spark Cyto plate reader (Tecan) with a 500 ms measurement time.
(§4) To determine compound effects on protein abundance of each target in Table 9, the percent response for each respective cell line was calculated at each compound concentration as follows:
(§5) For the normalized response at each concentration, a four-parameter logistical regression was fit to the data and the response was interpolated at the […] to determine a concentration for protein abundance at 50% o (IC50) the untreated control.

In a further experiment the test system is Target C. In words: Gene panel canonical junction qPCR assay, Target C CJ mRNA (Table 7). In kind it is cell-based, human. Conditions: Homo sapiens, read-out: Target C CJ mRNA decrease IC50. An outline of the steps:
as §1

The subject of experiment [3] is HiBit-tagged HTT in K562 cells. Description: HiBiT protein abundance assay, HTT. In kind it is cell-based, human. To be noted: HiBiT-modified K562 cells, 24 hours, luminescence. As for the experimental part:
as §2, §3, §4, §5

For experiment [4], the system named is HiBit-tagged MYB in K562 cells. In words: HiBiT protein abundance assay, MYB. Type of experiment: cell-based, human. Conditions: HiBiT-modified K562 cells, 24 hours, luminescence. As for the experimental part: as §2, §3, §4, §5
Experiment [5] deals with HTT. Description: RT-qPCR splicing assay, HTT AJ/CJ mRNA. In kind it is cell-based, human. Conditions: A673 or K562 cells; for IC50: decrease in canonical junction mRNA; for AC50: increase in alternative junction mRNA. The method in brief: (§6)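 A673 or K562 cells were treated for 24 h at 37° C with an 11-point 3-fold compound series (top 10 uM, DMSO ≤0.25%). Lysates underwent RT-qPCR for the canonical (CJ) and alternative-exon (AJ) junctions, normalized to GAPDH, GUSB or PPIA, then to DMSO (ΔΔCt), giving RQ and percentage response.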

Experiment [6] deals with MYB. In words: RT-qPCR splicing assay, MYB AJ/CJ mRNA. To be noted: Homo sapiens, A673 or K562 cells, 24 hours; for IC50: decrease in canonical junction mRNA; for AC50: increase in alternative junction mRNA. In kind it is cell-based. An outline of the steps:
as §6

A further experiment concerns SMN2. Description: Gene panel canonical junction qPCR assay, SMN2 CJ mRNA (Table 7). In kind it is cell-based. To be noted: Homo sapiens, read-out: SMN2 CJ mRNA decrease IC50. An outline of the steps: as §1
In experiment [7] the test system is MYB. Description: Gene panel canonical junction qPCR assay, MYB CJ mRNA (Table 7). Conditions: Homo sapiens, read-out: MYB CJ mRNA decrease IC50. Type of experiment: cell-based. An outline of the steps: as §1

With `CC1(C)CC(Nc2ccc3c(n2)CCOc2cc(-c4cn[nH]c4)ccc2-3)CC(C)(C)N1` [Compound 141], the IC50 with HTT [1] (Homo sapiens) was over 10 µM; in experiment [2], 1 to 10 µM; in the experiment with Target C, 1 to 10 µM; in experiment [3], 1 to 10 µM; in experiment [4], under 0.1 µM; in the experiment on HTT [5] (Homo sapiens, 24 h), over 10 µM. For the same molecule, the AC50 in the experiment with HTT [5] (Homo sapiens, 24 h) was over 10 µM.
Consider `c1cnn(-c2ccc3c(c2)OCc2nc(N[C@@H]4C[C@H]5CC[C@@H](C4)N5)ccc2-3)c1` [Compound 119], for which the 50% inhibitory concentration (IC50) with HTT [1] is over 10 µM; in experiment [2], 1 to 10 µM; in the experiment on Target C, 1 to 10 µM; in experiment [3], 0.1 to 1 µM; in experiment [4], 1 to 10 µM; in the experiment on HTT [5] (24 hours), over 10 µM. The molecule further displayed an AC50 in the experiment on HTT [5] (24 hours) of over 10 µM.
For `c1cnn(-c2ccc3c(c2)COc2nc(N4CC5(CCNCC5)C4)ccc2-3)c1` [Compound 167], the IC50 in the experiment with HTT [1] (Homo sapiens) was over 10 µM; with Target C, over 10 µM; in the experiment with MYB [6], over 10 µM; in the experiment with SMN2, over 10 µM; with MYB [7], over 10 µM; in the experiment on HTT [5] (Homo sapiens, 24 h) it was over 10 µM. In addition, the AC50 is over 10 µM in the experiment with MYB [6] and over 10 µM in the experiment with HTT [5] (Homo sapiens, 24 h).
Regarding `COc1cc(-c2ccc3c(c2)COc2nc(N4CCC(NC(C)(C)C)CC4)ccc2-3)cnn1` [Compound 302], the IC50 in the experiment on HTT [1] (Homo sapiens) is over 10 µM; with Target C, over 10 µM; in the experiment with MYB [6] it was over 10 µM; in the experiment on SMN2 it was over 10 µM; with MYB [7], over 10 µM; with HTT [5] (Homo sapiens, 24 h) it was over 10 µM. The AC50 was over 10 µM in the experiment with MYB [6] and over 10 µM with HTT [5] (Homo sapiens, 24 h).
